We go through nine molecules from patent US20240415819A1, “MACROCYCLIC COMPOUNDS AS PROTEASOME SUBUNIT BETA TYPE-5 INHIBITORS” (Lead Discovery Center GmbH, priority 2021, published 2024).

For one experiment, the system named is HT-29 cells. Description: CellTiter-Glo luminescent cell viability assay with HT-29 cells (72h incubation). In kind it is cell-based, human. The note with it: Homo sapiens, HT-29, HT29 cells, read-out: CTG HT29. The method, boiled down:
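400 cells per well in DMEM/10% FCS were dosed after 24 h and kept 72 h at 37 °C, 5% CO2. ATP-based luminescence (CellTiter-Glo) normalized to DMSO and 10 μM staurosporine controls; IC50 by dose-response fit.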
In general terms: Cellular ATP, detected with luciferase, serves as a proxy for viable cell number.

A further experiment has as its system hPMBC. Description: Chymotrypsin-like ProteasomeGlo assay in hPBMC. Format: cell-based. The note with it: Homo sapiens; read-out: Pglo hPBMC. The method, boiled down:
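B cells isolated from human PBMC (buffy coats, density gradient, magnetic isolation). Cells treated with compound for 105 min at 37 °C, with staurosporine and DMSO included. Chymotrypsin-like proteasome activity read by luminescence with Suc-LLVY-Glo substrate to derive IC50.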

Experiment [1] concerns the target T1, β5 subunit of the human constitutive proteasome (CPS) (Homo sapiens, UniProt P28074).
T1 construct: purchased Boston Biochem E-360
Put plainly: β5 inhibition assay, human constitutive proteasome (Suc-LLVY-AMC). The note with it: IC50 class, Suc-LLVY-AMC substrate. In kind it is biochemical. Here is the method:
The enzymatic activity of the β5 subunit of the human constitutive proteasome (CPS) is analyzed. In another assay, which differs from the assay of the human constitutive proteasome only in using the human immunoproteasome (IPS) the enzymatic activity of the β5 subunit of the human immunoproteasome (IPS) is analyzed. […] Inhibition is indicated as IC50 [nM] (“-”=not measured).

Structures are written as SMILES.

As to `Cc1ccc2cc1CNC(=O)[C@H](CCc1ccccc1)NC(=O)[C@@H](NC(=O)CN1CCNCC1)CC(=O)N1CCCC(CCO2)C1` (stereo partly drawn) [Compound 126, N-((9S,12S)-5^4-methyl-8,11,14-trioxo-9-phenethyl-4-oxa-7,10-diaza-1(3,1)-piperidina-5(1,3)-benzenacyclotetradecaphane-12-yl)-2-(piperazin-1-yl)acetamide], the IC50 was 100 to 500 nM in the experiment on HT-29 cells, less than 100 nM with hPMBC and less than 100 nM in experiment [1].

Turning to `Cc1ccc2cc1CNC(=O)[C@H](Cc1c[nH]c3ccccc13)NC(=O)CCC(=O)N1CCCC(CCO2)C1` (stereo partly drawn) [Compound 77, (9S)-9-((1H-indol-3-yl)methyl)-5^4-methyl-4-oxa-7,10-diaza-1(3,1)-piperidina-5(1,3)-benzenacyclotetradecaphane-8,11,14-trione], the IC50 with HT-29 cells is 1000 to 5000 nM; in the experiment on hPMBC, 100 to 500 nM; in experiment [1], less than 100 nM.

Consider `CC(=O)N[C@H]1CCC(=O)N2CCCC(C2)Oc2ccc(C)c(c2)CNC(=O)[C@H](CCc2ccccc2)NC1=O` (stereo partly drawn) [Compound 148, N-((7S,10S)-3^4-methyl-6,9,13-trioxo-7-phenethyl-2-oxa-5,8-diaza-1(3,1)-piperidina-3(1,3)-benzenacyclotridecaphane-10-yl)acetamide], for which the IC50 with HT-29 cells lay in the range of 100 to 500 nM; in the experiment on hPMBC, 500 to 1000 nM; in experiment [1], 1000 to 5000 nM.

In the case of `CCC(CC)(CO)C(=O)N[C@H]1CC(=O)N2CCCC(CCOc3ccc(C)c(c3)CNC(=O)[C@H](CCc3ccccc3)NC1=O)C2` (stereo partly drawn) [Compound 285, 2-ethyl-2-(hydroxymethyl)-N-((9S,12S)-5^4-methyl-8,11,14-trioxo-9-phenethyl-4-oxa-7,10-diaza-1(3,1)-piperidina-5(1,3)-benzenacyclotetradecaphane-12-yl)butanamide], the IC50 (in the experiment on HT-29 cells; in the experiment on hPMBC; in experiment [1]) was less than 100 nM throughout.

For `Cc1ccc2cc1CNC(=O)[C@@H](CCc1ccccc1)NC(=O)[C@H](NC(=O)OCc1ccccc1)CC(=O)N1CCC[C@H](CCO2)C1` [Compound 290, benzyl ((13R,9R,12R)-5^4-methyl-8,11,14-trioxo-9-phenethyl-4-oxa-7,10-diaza-1(3,1)-piperidina-5(1,3)-benzenacyclotetradecaphane-12-yl)carbamate], the IC50 in the experiment on HT-29 cells is 100 to 500 nM; in the experiment with hPMBC it was more than 5000 nM; in experiment [1], 1000 to 5000 nM.

Regarding `CC(=O)N[C@H]1CCCC(=O)N2CC3CC(Oc4ccc(C)c(c4)CNC(=O)[C@H](CCc4ccccc4)NC1=O)C3C2` (stereo partly drawn) [Compound 191, N-((11R,15S,7S,10S)-3^4-methyl-6,9,14-trioxo-7-phenethyl-2-oxa-13,5,8-triaza-1(7,3)-bicyclo[3.2.0]heptana-3(1,3)-benzenacyclotetradecaphane-10-yl)acetamide], the IC50 is 1000 to 5000 nM in the experiment with HT-29 cells, 100 to 500 nM in the experiment on hPMBC and 500 to 1000 nM in experiment [1].

Turning to `COCCOCCOCCOC(=O)N[C@H]1CC(=O)N2CCCC(CCOc3ccc(C)c(c3)CNC(=O)[C@H](CCc3ccccc3)NC1=O)C2` (stereo partly drawn) [Compound 220, 2-(2-(2-methoxyethoxy)ethoxy)ethyl ((9R,12R)-5^4-methyl-8,11,14-trioxo-9-phenethyl-4-oxa-7,10-diaza-1(3,1)-piperidina-5(1,3)-benzenacyclotetradecaphane-12-yl)carbamate], the IC50 (in the experiment on HT-29 cells; with hPMBC; in experiment [1]) was less than 100 nM each time.

For the molecule `COc1ccc(CC(=O)N[C@H]2CC(=O)N3CCCC(CCOc4ccc(C)c(c4)CNC(=O)[C@H](CCc4ccccc4)NC2=O)C3)cc1OC` (stereo partly drawn) [Compound 63, 2-(3,4-dimethoxyphenyl)-N-((9S,12S)-5^4-methyl-8,11,14-trioxo-9-phenethyl-4-oxa-7,10-diaza-1(3,1)-piperidina-5(1,3)-benzenacyclotetradecaphane-12-yl)acetamide], the IC50 (in the experiment with HT-29 cells; with hPMBC; in experiment [1]) was less than 100 nM in each case.

As for `C=CC(=O)N[C@H]1CC(=O)N2CCCC(CCOc3ccc(C)c(c3)CNC(=O)[C@H](CCc3ccccc3)NC1=O)C2` (stereo partly drawn) [Compound 181, N-((9S,12S)-5^4-methyl-8,11,14-trioxo-9-phenethyl-4-oxa-7,10-diaza-1(3,1)-piperidina-5(1,3)-benzenacyclotetradecaphane-12-yl)acrylamide], the IC50 (in the experiment on HT-29 cells; in the experiment with hPMBC; in experiment [1]) was less than 100 nM each time.
